Patent US20250320224A1 (DOMAIN THERAPEUTICS, priority 2022, published 2025)
Where a name gives a salt, the structure may show the parent alone.

Target: T1, human PAR-2 (hPAR-2) receptor (Homo sapiens, UniProt P55085)
T1 construct: expressed in HEK-293 cells in an endogenous manner; endogenous in cells; host or cells: HEK-293
T1 sequence (P55085 26-397): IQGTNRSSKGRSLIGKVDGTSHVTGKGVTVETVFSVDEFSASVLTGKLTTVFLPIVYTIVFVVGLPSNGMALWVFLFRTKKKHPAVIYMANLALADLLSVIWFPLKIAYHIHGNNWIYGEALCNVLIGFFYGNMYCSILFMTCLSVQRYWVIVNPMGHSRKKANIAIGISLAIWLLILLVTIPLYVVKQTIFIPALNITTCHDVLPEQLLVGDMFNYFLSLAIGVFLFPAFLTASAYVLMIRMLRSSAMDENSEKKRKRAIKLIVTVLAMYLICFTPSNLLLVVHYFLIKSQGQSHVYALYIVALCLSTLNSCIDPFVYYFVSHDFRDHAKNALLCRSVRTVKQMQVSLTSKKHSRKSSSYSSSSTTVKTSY
Assay: In vitro human PAR-2 functional antagonist activity using calcium assays
Type: cell-based
Details: hPAR-2 endogenously expressed in HEK-293 cells; stimulated by 2-Furoyl-LIGRLO-NH2 peptide; Fluo4AM intracellular calcium, FLIPR Tetra
Experimental: Example 283: In Vitro Human PAR-2 Functional Antagonist Activity Using Calcium Assays
Examples of the present invention were tested successively for their agonist and antagonist activities on human PAR-2 (hPAR-2) receptor expressed in HEK-293 cells in an endogenous manner. Compounds exert agonist activity if, by themselves in absence of the 2-Furoyl-LIGRLO-NH2 peptide (selective hPAR-2 agonist), they activate PAR-2; they exert antagonist activity if they decrease the action of the 2-Furoyl-LIGRLO-NH2 peptide on the receptor. The assay used to determine compound activity is based on calcium measurement.
Cell Culture: HEK-293 cells were maintained in Dulbecco's Modified Eagle's Medium supplemented with 10% Foetal Calf Serum, 1% Penicillin/Streptomycin at 37° C./5% CO2. Flasks for tests (F75) are seeded with 6e+06 cells 24 h before the experiment at 37° C./5% CO2.
Calcium assay: Receptor activity was detected by changes in intracellular calcium measured using the fluorescent Ca^2+ sensitive dye, Fluo4AM (Molecular Probes).
The day of the assay, medium was replaced by assay buffer (HBSS 1× (Gibco 14175-053), Hepes 20 mM, MgSO4-7H2O 1 mM, Na2CO3 3.3 mM, CaCl2—2H2O 2.6 mM, 0.5% bovine serum albumin (BSA), Probenecid 2.5 mM, 0.1 mg/mL Pluronic Acid) and complemented with 1 μM Fluo4AM and cells were incubated during 1:30 h at 37° C.
Cells were then detached, resuspended in assay buffer and seeded in 384 wells, transparent-flat bottom black walled plates (2e+04 cells per well). Plates were incubated at +22° C. for 20 min. Compounds stock solutions were prepared in 100% DMSO and dilutions in test buffer were carried out in polypropylene plates with a digital dispenser (D300e, Tecan). Compounds were added to the cells and intracellular Ca^2+ measurements were collected at the same time on FLIPR Tetra® (Molecular Devices) with specific filters (Exc: 470-495 nm/Em: 515-575 nm).
Agonist and antagonist activities of compounds were consecutively evaluated on the same cell plate. Agonist activity was first measured after 10 min incubation with the compound alone. Then, cells were stimulated by an […] of the 2-Furoyl-LIGRLO-NH2 peptide and fluorescence was recorded for an additional 5 min. EC50 of the 2-Furoyl-LIGRLO-NH2 peptide was the concentration giving 80% of the maximal 2-Furoyl-LIGRLO-NH2 response. Agonist activities are evaluated in comparison to basal signals evoked by assay buffer or maximal 2-Furoyl-LIGRLO-NH2 response. […] Antagonist activities are evaluated in comparison to basal signals evoked by assay buffer or EC50 of 2-Furoyl-LIGRLO-NH2 alone.

Compound | IC50 [nM]
CC(C)(CO)NC(=O)c1ccc2c(n1)C(C)(C)CN2c1ccc(Cl)c(F)c1 [Example 51, 1-(4-chloro-3-fluorophenyl)-N-(1-hydroxy-2-methylpropan-2-yl)-3,3-dimethyl-2,3-dihydro-1H-pyrrolo[3,2-b]pyridine-5-carboxamide] | 500 to 10000
CC(C)(O)CNC(=O)c1ccc2c(n1)C(C)(C)CN2c1ccc(Cl)c(F)c1 [Example 52, 1-(4-chloro-3-fluorophenyl)-N-(2-hydroxy-2-methylpropyl)-3,3-dimethyl-2,3-dihydro-1H-pyrrolo[3,2-b]pyridine-5-carboxamide] | > 10000
CCC1(C)CN(c2ccc(Cl)c(F)c2)c2ccc(C(=O)NC3(C(N)=O)CC3)nc21 (centres unmarked) [Example 54, N-(1-carbamoylcyclopropyl)-1-(4-chloro-3-fluorophenyl)-3-ethyl-3-methyl-2,3-dihydro-1H-pyrrolo[3,2-b]pyridine-5-carboxamide] | 500 to 10000
CC1(C)C(=O)NCCN1C(=O)c1ccc2c(n1)C1(CCOC1)CN2c1ccc(Cl)c(F)c1 (centres unmarked) [Example 58, 4-(1′-(4-chloro-3-fluorophenyl)-1′,2′,4,5-tetrahydro-2H-spiro[furan-3,3′-pyrrolo[3,2-b]pyridine]-5′-carbonyl)-3,3-dimethylpiperazin-2-one] | < 500
Cc1cc(N2CCN(C(=O)c3ccc4c(n3)C3(CCOC3)CN4c3ccc(Cl)c(F)c3)C(C)(C)C2)nc(C)c1C(=O)O (centres unmarked) [Example 60, 6-(4-(1′-(4-chloro-3-fluorophenyl)-1′,2′,4,5-tetrahydro-2H-spiro[furan-3,3′-pyrrolo[3,2-b]pyridine]-5′-carbonyl)-3,3-dimethylpiperazin-1-yl)-2,4-dimethylnicotinic acid hydrochloride] | < 500
CC1(C)CN(c2ccc(Cl)c(F)c2)c2ccc(C(=O)N3CCN(c4ccc(CC(=O)O)cn4)CC3(C)C)nc21 [Example 65, 2-(6-(4-(1-(4-chloro-3-fluorophenyl)-3,3-dimethyl-2,3-dihydro-1H-pyrrolo[3,2-b]pyridine-5-carbonyl)-3,3-dimethylpiperazin-1-yl)pyridin-3-yl)acetic acid] | < 500
CC1(C)CN(c2ccc(Cl)c(F)c2)c2ccc(C(=O)N3CCN(c4nncs4)CC3(C)C)nc21 [Example 67, (1-(4-chloro-3-fluorophenyl)-3,3-dimethyl-2,3-dihydro-1H-pyrrolo[3,2-b]pyridin-5-yl)(2,2-dimethyl-4-(1,3,4-thiadiazol-2-yl)piperazin-1-yl)methanone] | < 500

The remaining lines, values ahead:

IC50 [nM] | Compound
< 500 | CCC1(C)CN(c2ccc(Cl)c(F)c2)c2ccc(C(=O)N3CCNC(=O)C3(C)C)nc21 (centres unmarked) [Example 53, 4-(1-(4-chloro-3-fluorophenyl)-3-ethyl-3-methyl-2,3-dihydro-1H-pyrrolo[3,2-b]pyridine-5-carbonyl)-3,3-dimethylpiperazin-2-one]
< 500 | CC1(C)C(=O)NCCN1C(=O)c1ccc2c(n1)C1(CCOCC1)CN2c1ccc(Cl)c(F)c1 [Example 55, 4-(1′-(4-chloro-3-fluorophenyl)-1′,2,2′,3,5,6-hexahydrospiro[pyran-4,3′-pyrrolo[3,2-b]pyridine]-5′-carbonyl)-3,3-dimethylpiperazin-2-one]
< 500 | Cc1cc(N2CCN(C(=O)c3ccc4c(n3)C3(CCOCC3)CN4c3ccc(Cl)c(F)c3)C(C)(C)C2)nc(C)c1C(=O)O [Example 56, 6-(4-(1′-(4-chloro-3-fluorophenyl)-1′,2,2′,3,5,6-hexahydrospiro[pyran-4,3′-pyrrolo[3,2-b]pyridine]-5′-carbonyl)-3,3-dimethylpiperazin-1-yl)-2,4-dimethylnicotinic acid]
< 500 | CC1(C)C(=O)NCCN1C(=O)c1ccc2c(n1)C1(CC1)CN2c1ccc(Cl)c(F)c1 [Example 57, 4-(1′-(4-chloro-3-fluorophenyl)-1′,2′-dihydrospiro[cyclopropane-1,3′-pyrrolo[3,2-b]pyridine]-5′-carbonyl)-3,3-dimethylpiperazin-2-one]
